Test: RP, Waters ACQUITY UPLC HSS T3, 0.1 mL/min; A: water + 0.01% formic acid; B: acetonitrile + 0.01% formic acid; gradient (min/%B) 0/10 38/45 45/45 55/0 60/0
Settings: stereoisomer not certain
Molecule `CCS(=O)(=O)c1nnc(N(C)C(=O)NC)s1` [Ethidimuron] has an LC retention time of 9.06 min.
Molecule `[O-][n+]1nc(-n2ccnc2)nc2ccc(Cl)cc21` [Triazoxide] has an LC retention time of 16 min.
For `Cc1cc(C2CC2)nc(Nc2ccccc2)n1` [Cyprodinil], the LC retention time was 33.2 min.
`COP(=S)(S)OC` [Dimethyldithiophosphate] gave an LC retention time of 2.95 min.
In the case of `O=[N+]([O-])/N=C1\NCCN1Cc1ccc(Cl)nc1` [Imidacloprid], the LC retention time is reported as 8.57 min.
Molecule `CNC(=O)c1cc(Cl)cc(C)c1NC(=O)c1cc(Br)nn1-c1ncccc1Cl` [Chlorantraniliprole] has an LC retention time of 30.9 min.
`CCNc1nc(Cl)nc(NC(C)(C)C)n1` [Terbuthylazine] gave an LC retention time of 30.6 min.
In the case of `COC(=O)c1ccc(CNS(C)(=O)=O)cc1S(=O)(=O)NC(=O)Nc1nc(OC)cc(OC)n1` [Mesosulfuron-methyl], the LC retention time is reported as 26.6 min.
`CCOC(=O)C1CC(=O)C(=C(O)C2CC2)C(=O)C1` (configuration not stated) [Trinexapac-ethyl] showed an LC retention time of 26.5 min.
For `CC(C)(C)C(O)C(Cc1ccc(Cl)cc1)n1cncn1` (configuration not stated) [Paclobutrazole], the LC retention time was 31.5 min.
In the case of `Nc1ccc(O)cc1` [4-Aminophenol], the LC retention time is reported as 1.3 min.
For `CC1CCC2C(C)C3C(CC4C5CC=C6CC(O)CCC6(C)C5CCC43C)N2C1` (configuration not stated) [Solanidine], the LC retention time was 24.5 min.
Molecule `CCCCCC=CCC(O)C=CC=CC=CC(O)CCCC(=O)O` (configuration not stated) [Leukotriene B4] has an LC retention time of 39.5 min.
With `COc1ccc2c3c1OC1C(O)C=CC4C(C2)N(C)CCC341` (configuration not stated) [Codeine] the LC retention time was 5.12 min.
`CC(C)N(C(=O)COc1nnc(C(F)(F)F)s1)c1ccc(F)cc1` [Flufenacet] gave an LC retention time of 41.1 min.
Work on `CSC1=NC(C)(c2ccccc2)C(=O)N1Nc1ccccc1` (configuration not stated) [Fenamidone] yielded an LC retention time of 35.8 min.
In the case of `CC12CCC3C(CCC4=CC(=O)CCC43C)C1CCC2=O` (configuration not stated) [Androstenedione], the LC retention time is reported as 31.5 min.
Molecule `Oc1ccccc1-c1ccccc1` [2-Phenylphenol] has an LC retention time of 30.2 min.
Molecule `Nc1cnn(-c2ccccc2)c(=O)c1Cl` [Chloridazon] has an LC retention time of 9.25 min.
For `CCNc1nc(Cl)nc(NCC)n1` [Simazine], the LC retention time was 14.5 min.
With `CNC(=N[N+](=O)[O-])NCc1cnc(Cl)s1` [Clothianidin] the LC retention time was 7.99 min.
Molecule `CCOC(=O)CC(SP(=S)(OC)OC)C(=O)OCC` (configuration not stated) [Malathion] has an LC retention time of 40.8 min.
Work on `CC(Cc1ccc(C(C)(C)C)cc1)CN1CC(C)OC(C)C1` (configuration not stated) [Fenpropimorph] yielded an LC retention time of 30.1 min.
Molecule `CC(=O)C1CCC2C3CCC4=CC(=O)CCC4(C)C3CCC12C` (configuration not stated) [Progesterone] has an LC retention time of 42.1 min.
Work on `CC1=NNC(=O)N(N=Cc2cccnc2)C1` [Pymetrozine] yielded an LC retention time of 26.7 min.
With `CNC1CCC(c2ccc(Cl)c(Cl)c2)c2ccccc21` (configuration not stated) [Sertraline] the LC retention time was 24.3 min.
`COc1ccc(C(=O)c2ccccc2)c(O)c1` [Oxybenzone] gave an LC retention time of 40.6 min.
`CC(Cc1ccc(C(C)(C)C)cc1)CN1CCCCC1` (configuration not stated) [Fenpropidine] gave an LC retention time of 26.2 min.
With `CSc1nc(NC2CC2)nc(NC(C)(C)C)n1` [Irgarol] the LC retention time was 29.9 min.
`Cn1cc(C(=O)Nc2ccc(F)cc2-c2ccc(Cl)c(Cl)c2)c(C(F)F)n1` [Bixafen] showed an LC retention time of 42.2 min.
For `C#CC(C)(C)NC(=O)c1cc(Cl)cc(Cl)c1` [Propyzamide], the LC retention time was 35.6 min.
Work on `COc1cc(OC)n2nc(S(=O)(=O)Nc3c(Cl)ccc(C)c3Cl)nc2n1` [Metosulam] yielded an LC retention time of 24.8 min.
Molecule `CC12CCC3c4cc(O)c(O)cc4CCC3C1CCC2O` (configuration not stated) [Estradiol-2-hydroxy] has an LC retention time of 21.5 min.
Work on `CN1CCCC1c1cccnc1` (configuration not stated) [Nicotine] yielded an LC retention time of 3.37 min.
For `COc1cc(OC)nc(NC(=O)NS(=O)(=O)c2cc(NC=O)ccc2C(=O)N(C)C)n1` [Foramsulfuron], the LC retention time was 17.9 min.
With `CC(=O)C1CCC2C3CC=C4CC(O)CCC4(C)C3CCC12C` (configuration not stated) [Pregnenolone] the LC retention time was 41.8 min.
`Cc1cccc(C)c1N(Cn1cccn1)C(=O)CCl` [Metazachlore] gave an LC retention time of 26.6 min.
For `CN1C(=O)CCC1c1ccc[n+](C2OC(C(=O)[O-])C(O)C(O)C2O)c1` (configuration not stated) [Cotinine glucuronide], the LC retention time was 1.4 min.
Molecule `NC(Cc1c[nH]c2ccccc12)C(=O)O` (configuration not stated) [Tryptophan] has an LC retention time of 5.4 min.
`CNC(=O)Nc1ccc(Cl)c(Cl)c1` [1-(3,4-Dichlorophenyl)-3-methylurea] gave an LC retention time of 20.5 min.
`CCOP(=O)(SC(C)CC)N1CCSC1=O` (configuration not stated) [Fosthiazate] showed an LC retention time of 22.2 min.
In the case of `CCNc1nc(NC(C)(C)C)nc(SC)n1` [Terbutryne], the LC retention time is reported as 28 min.
With `COc1nc(C)nc(NC(=O)NS(=O)(=O)c2ccccc2CCC(F)(F)F)n1` [Prosulfuron] the LC retention time was 34.5 min.
Molecule `COc1ccc(C(CN(C)C)C2(O)CCCCC2)cc1` (configuration not stated) [Venlafaxine] has an LC retention time of 9.84 min.
Work on `COC(=O)c1ccc(C)cc1C1=NC(C)(C(C)C)C(=O)N1` (configuration not stated) [Imazamethabenz-methyl] yielded an LC retention time of 14.2 min.
`CC(=O)Oc1ccccc1C(=O)O` [Acetylsalicylic acid] showed an LC retention time of 8.55 min.
In the case of `CCCC1COC(Cn2cncn2)(c2ccc(Cl)cc2Cl)O1` (configuration not stated) [Propiconazole], the LC retention time is reported as 41.7 min.
Molecule `CNC1=C(c2cccc(C(F)(F)F)c2)C(=O)C(c2ccccc2)O1` (configuration not stated) [Flurtamone] has an LC retention time of 34.1 min.
`COC(=O)Nc1nc2ccccc2[nH]1` [Carbendazim] showed an LC retention time of 5.69 min.
For `COC(=O)c1cccc(C)c1S(=O)(=O)NC(=O)Nc1nc(OCC(F)(F)F)nc(N(C)C)n1` [Triflusulfuron-methyl], the LC retention time was 39 min.
Work on `CCC(Oc1ccc(F)c(C(F)(F)F)c1)C(=O)NCc1ccccc1` (configuration not stated) [Beflubutamid] yielded an LC retention time of 42.7 min.
In the case of `COc1nc(NC(=O)NS(=O)(=O)c2ccccc2C(F)(F)F)nc(C(F)(F)F)n1` [Tritosulfuron], the LC retention time is reported as 35.9 min.
Work on `CN(C)C(=O)Nc1ccc(Cl)c(Cl)c1` [Diuron] yielded an LC retention time of 23.7 min.
Molecule `CCCOC(=O)NCCCN(C)C` [Propamocarb] has an LC retention time of 5.59 min.
`COCc1cnc(C2=NC(C)(C(C)C)C(=O)N2)c(C(=O)O)c1` (configuration not stated) [Imazamox] gave an LC retention time of 9.34 min.
Work on `CCNc1nc(N)nc(Cl)n1` [Atrazine-desisopropyl] yielded an LC retention time of 6.98 min.
In the case of `NCCc1ccc(O)c(O)c1` [Dopamine], the LC retention time is reported as 3.88 min.
Work on `CC(C(=O)O)c1cccc(C(=O)c2ccccc2)c1` (configuration not stated) [Ketoprofen] yielded an LC retention time of 28.3 min.
`CCOP(=S)(OCC)Oc1cc(C)nc(C(C)C)n1` [Diazinon] showed an LC retention time of 43.4 min.
Molecule `C#CC1(O)CCC2C3CCc4cc(O)ccc4C3CCC21C` (configuration not stated) [Ethinylestradiol] has an LC retention time of 31.6 min.
Molecule `CCCN(CCOc1c(Cl)cc(Cl)cc1Cl)C(=O)n1ccnc1` [Prochloraz] has an LC retention time of 38.7 min.
Work on `CC(C)c1ccc(NC(=O)N(C)C)cc1` [Isoproturon] yielded an LC retention time of 23.4 min.
With `COC(=O)c1ccccc1S(=O)(=O)NC(=O)Nc1nc(C)nc(OC)n1` [Metsulfuron-methyl] the LC retention time was 19.4 min.
`CCc1cccc(C)c1N(C(=O)CCl)C(C)COC` (configuration not stated) [Metolachlor] gave an LC retention time of 26.7 min.
In the case of `CC(=O)OCC[N+](C)(C)C` [Acetylcholine], the LC retention time is reported as 1.39 min.
`Cc1nnc(-c2ccccc2)c(=O)n1N` [Metamitron] showed an LC retention time of 8.55 min.
`Cc1cnc2c(C(=O)O)c(Cl)ccc2c1` [Quinmerac] showed an LC retention time of 8.87 min.
With `CC(C)Cc1ccc(C(C)C(=O)O)cc1` (configuration not stated) [Ibuprofen] the LC retention time was 39.9 min.
With `COP(=S)(OC)Oc1nc(Cl)c(Cl)cc1Cl` [Chlorpyrifos-methyl] the LC retention time was 43.9 min.
Work on `O=C(Nc1ccccc1)N(Cc1ccc(Cl)cc1)C1CCCC1` [Pencycuron] yielded an LC retention time of 43.7 min.
For `COc1cc(OC)nc(NC(=O)NS(=O)(=O)c2ncccc2C(=O)N(C)C)n1` [Nicosulfuron], the LC retention time was 15.2 min.
Work on `CCCCCC=CCC=CCC=CCC=CCCCC(=O)O` [Arachidonic Acid] yielded an LC retention time of 47 min.
With `CN1CCCC1c1ccc[n+](C2OC(C(=O)[O-])C(O)C(O)C2O)c1` (configuration not stated) [Nicotine Glucuronide] the LC retention time was 1.3 min.
`CCC(C)C(=O)OC1CC(O)C=C2C=CC(C)C(CCC(O)CC(O)CC(=O)O)C21` (configuration not stated) [Pravastatin] showed an LC retention time of 20.5 min.
`NC(=O)Nc1ccc(Cl)c(Cl)c1` [1-(3,4-Dichlorophenyl)urea] showed an LC retention time of 16.9 min.
With `CC12CCC3c4ccc(O)cc4CCC3C1CC(O)C2O` (configuration not stated) [Estriol] the LC retention time was 11.7 min.
Molecule `CN1C(=O)CCC1c1cccnc1` (configuration not stated) [Cotinine] has an LC retention time of 4.31 min.
For `CC12CCC3c4ccc(O)cc4CCC3C1CCC2=O` (configuration not stated) [Estrone], the LC retention time was 31.6 min.
Work on `COC(=O)c1ccc(I)cc1S(=O)(=O)NC(=O)Nc1nc(C)nc(OC)n1` [Iodosulfuron-methyl] yielded an LC retention time of 30.4 min.
Work on `CCC(C)(CC)c1cc(NC(=O)c2c(OC)cccc2OC)on1` [Isoxaben] yielded an LC retention time of 39 min.
`CC(=O)C1(O)CCC2C3CCC4=CC(=O)CCC4(C)C3CCC21C` (configuration not stated) [Progesterone-17-hydroxy] gave an LC retention time of 33.9 min.
`Cc1cc(C)nc(Nc2ccccc2)n1` [Pyrimethanil] gave an LC retention time of 22.2 min.
In the case of `CC(=O)Nc1ccc(O)cc1` [Paracetamol], the LC retention time is reported as 4.98 min.
In the case of `COc1cc(OC)n2nc(NS(=O)(=O)c3c(C(F)(F)F)ccnc3OC)nc2n1` [Pyroxsulam], the LC retention time is reported as 20.3 min.
Work on `CON(C)C(=O)Nc1ccc(Cl)c(Cl)c1` [Linuron] yielded an LC retention time of 31.7 min.
Molecule `NCCc1c[nH]c2ccc(O)cc12` [5-Hydroxytryptamine] has an LC retention time of 4.3 min.
`N#CCNC(=O)c1cnccc1C(F)(F)F` [Flonicamid] gave an LC retention time of 7.52 min.
Work on `O=C(C=CC=Cc1ccc2c(c1)OCO2)N1CCCCC1` [Piperine] yielded an LC retention time of 36.4 min.
`O=C(O)c1ccccc1O` [Salicylic acid] gave an LC retention time of 8.4 min.
For `COC(=O)c1ccc(O)cc1` [Methylparaben], the LC retention time was 10 min.
In the case of `CNC(=O)Oc1cccc2c1OC(C)(C)C2` [Carbofuran], the LC retention time is reported as 18.6 min.
Work on `Cn1c(=O)c2c(ncn2C)n(C)c1=O` [Caffeine] yielded an LC retention time of 5.71 min.

From the RepoRT retention time repository
